Here are results for 21 molecules from ChEMBL document CHEMBL6115005, “New phenylpiperazine-thiazolidine-2,4-dione hybrids targeting MAO inhibition: Synthesis, biological evaluation, kinetic study and in silico insights” (Bioorg Med Chem, 2025).

Test [1] has as its target T1, Amine oxidase [flavin-containing] A (Homo sapiens, UniProt P21397).
T1 sequence (P21397 whole entry): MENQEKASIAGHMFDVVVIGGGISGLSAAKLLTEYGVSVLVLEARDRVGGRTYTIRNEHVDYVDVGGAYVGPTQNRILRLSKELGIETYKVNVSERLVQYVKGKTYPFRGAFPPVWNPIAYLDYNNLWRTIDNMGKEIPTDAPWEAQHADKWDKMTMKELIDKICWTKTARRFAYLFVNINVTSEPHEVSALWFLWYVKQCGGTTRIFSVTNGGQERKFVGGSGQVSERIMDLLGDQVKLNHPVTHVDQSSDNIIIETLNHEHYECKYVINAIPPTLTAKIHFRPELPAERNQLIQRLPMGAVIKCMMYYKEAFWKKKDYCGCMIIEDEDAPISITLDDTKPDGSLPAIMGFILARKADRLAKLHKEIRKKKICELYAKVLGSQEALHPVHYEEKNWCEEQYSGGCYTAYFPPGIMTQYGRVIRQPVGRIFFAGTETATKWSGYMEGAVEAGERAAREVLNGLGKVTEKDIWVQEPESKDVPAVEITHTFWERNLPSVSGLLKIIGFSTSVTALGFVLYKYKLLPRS
Briefly: Inhibition of human MAO-A using kynuramine as substrate by fluorometric assay.

Test [2] has as its target T2, Amine oxidase [flavin-containing] B (Homo sapiens, UniProt P27338).
T2 sequence (P27338 whole entry): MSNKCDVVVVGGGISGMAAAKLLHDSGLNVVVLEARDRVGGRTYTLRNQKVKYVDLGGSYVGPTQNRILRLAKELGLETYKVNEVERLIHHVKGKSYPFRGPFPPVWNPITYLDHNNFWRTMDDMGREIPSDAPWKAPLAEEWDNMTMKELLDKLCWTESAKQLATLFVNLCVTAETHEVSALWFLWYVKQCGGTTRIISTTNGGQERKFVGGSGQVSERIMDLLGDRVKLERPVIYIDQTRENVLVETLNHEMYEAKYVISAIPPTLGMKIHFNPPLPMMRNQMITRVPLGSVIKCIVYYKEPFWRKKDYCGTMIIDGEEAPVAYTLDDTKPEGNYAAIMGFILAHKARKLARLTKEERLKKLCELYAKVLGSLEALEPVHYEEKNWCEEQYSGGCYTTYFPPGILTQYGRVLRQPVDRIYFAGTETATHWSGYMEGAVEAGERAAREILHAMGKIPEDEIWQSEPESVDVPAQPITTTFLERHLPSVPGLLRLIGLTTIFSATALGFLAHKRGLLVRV
Briefly: Inhibition of human MAO-B using benzylamine as substrate by fluorometric assay.

Test [3] is filed under the species Homo sapiens. Briefly: Selectivity index, ratio of IC50 for inhibition of human MAO-B using benzylamine as substrate to IC50 for inhibition of human MAO-A using kynuramine as substrate.
Test [4] deals with T1, Amine oxidase [flavin-containing] A. Kind of test: Inhibition of MAO-A (unknown origin).
The target in test [5] is T2, Amine oxidase [flavin-containing] B. Briefly: Inhibition of MAO-B (unknown origin).
Test [6] relates to SH-SY5Y. Briefly: Cytotoxicity against human SH-SY5Y cells by MTT assay. It counts as functional, cell-based.
Test [7] relates to PC-12. Briefly: Neuroprotective activity against rotenone-induced cytotoxicity in rat PC12 cells assessed as increase in cell viability at 16 microg/ml by MTT assay. The conditions noted are these: dose 16 µg/ml. It counts as functional.
The target in test [8] is T1, Amine oxidase [flavin-containing] A. Kind of test: Mixed type inhibition of human MAO-A by lineweaver-burk plot analysis.

Bounds are passed on as bounds.

As to `C#CCN1C(=O)S/C(=C\c2ccc(N3CCN(c4ccccc4OCC)CC3)cc2)C1=O`, the half-maximal inhibitory concentration (IC50) was determined as 0.218 µM in test [1] and 1.74 µM in test [2]. Also, the Ratio IC50 in test [3] is 7.96.
In test [4], `OCc1ccc(N2CCN(c3cccc(Cl)c3)CC2)cc1` gave an IC50 of 0.09 µM.
With `C=CCN1C(=O)S/C(=C\c2ccc(N3CCN(c4ccc(F)cc4)CC3)cc2)C1=O`, the figures for the IC50 in test [1] and in test [2] were 1.48 µM and 0.33 µM, respectively. For the same molecule, the Ratio IC50 in test [3] is 0.22.
On to `CCOc1ccccc1N1CCN(c2ccc(/C=C3\SC(=O)NC3=O)cc2)CC1`, for which the half-maximal inhibitory concentration (IC50) was found to be 1.36 µM in test [1] and 2.73 µM in test [2]. Also, the Ratio IC50 in test [3] amounted to 2.
On the same counts, the results for `C=CCN1C(=O)S/C(=C\c2ccc(N3CCN(C4CCCCC4)CC3)cc2)C1=O` are 1.73 µM, more than 10 µM and more than 5.79.
On the same counts, the results for `O=C1S/C(=C\c2ccc(N3CCN(C4CCCCC4)CC3)cc2)C(=O)N1Cc1ccccc1` are 0.518 µM, 2.74 µM and 5.28.
On the same counts, the results for `O=C1NC(=O)/C(=C/c2ccc(N3CCN(C4CCCCC4)CC3)cc2)S1` are 3.15 µM, 8.98 µM and 2.85.
As for `C#CCN1C(=O)S/C(=C\c2ccc(N3CCN(c4ccccc4)CC3)cc2)C1=O`, the IC50 came out at 1.49 µM in test [1] and 3.01 µM in test [2]. Moreover, the Ratio IC50 in test [3] was 2.02.
In the case of `CC(C)(C)c1ccc(S(=O)(=O)c2ccc(N3CCN(C(c4ccccc4)c4ccccc4)CC3)cc2)cc1`, the IC50 in test [5] is 0.61 µM.
Regarding `O=C1S/C(=C\c2ccc(N3CCN(c4ccc(F)cc4)CC3)cc2)C(=O)N1Cc1ccccc1`, the results for the IC50 in test [1], in test [2] and in test [6] were 0.188 µM, 0.479 µM and 94.7 µM, respectively. The Activity in test [7] was 73.16%. In test [8], this molecule displayed a Ki of 0.0034 µM.
As to `O=C1NC(=O)/C(=C/c2ccc(N3CCN(c4ccccc4)CC3)cc2)S1`, the concentration for half-maximal inhibition (IC50) stood at 0.405 µM in test [1] and 6.73 µM in test [2]. The Ratio IC50 in test [3] came out at 16.6.
With `O=C1NC(=O)/C(=C/c2ccc(N3CCN(c4ccc(F)cc4)CC3)cc2)S1`, the values for the IC50 in test [1] and in test [2] were 2.52 µM and 7.13 µM, respectively. The Ratio IC50 in test [3] was found to be 2.83.
On the same counts, the results for `C=CCN1C(=O)S/C(=C\c2ccc(N3CCN(c4ccccc4)CC3)cc2)C1=O` are 5.7 µM, more than 10 µM and more than 2.66.
On the same counts, the results for `O=C1S/C(=C\c2ccc(N3CCN(c4ccccc4)CC3)cc2)C(=O)N1Cc1ccccc1` are 0.194 µM, 0.652 µM and 3.36.
Regarding `COc1ccc(N2CCN(Cc3nnc(SCC(=O)c4ccc(Cl)cc4)n3C)CC2)cc1`, the concentration for half-maximal inhibition (IC50) in test [4] and in test [5] was 0.07 µM in each case.
In the case of `C#CCN[C@@H]1CCc2ccccc21` [RASAGILINE], the Activity in test [7] came to 69.75%.
For the molecule `C#CCN1C(=O)S/C(=C\c2ccc(N3CCN(c4ccc(F)cc4)CC3)cc2)C1=O`, the values for the IC50 in test [1] and in test [2] were 0.381 µM and 1.36 µM, respectively. For the same molecule, the Ratio IC50 in test [3] was 3.57.
On the same counts, the results for `C#CCN1C(=O)S/C(=C\c2ccc(N3CCN(C4CCCCC4)CC3)cc2)C1=O` are 1.43 µM, 0.705 µM and 0.49.
As to `CCOc1ccccc1N1CCN(c2ccc(/C=C3\SC(=O)N(Cc4ccccc4)C3=O)cc2)CC1`, the IC50 in test [1] is 0.502 µM; in test [2], 1.06 µM. Besides, the Ratio IC50 in test [3] came out at 2.11.
On to `CN1CCN(c2ccc(/C=N/Nc3nc(-c4ccc([N+](=O)[O-])cc4)cs3)cc2)CC1`, for which, in test [4], half-maximal inhibition (IC50) required 0.057 µM.
Turning to `C=CCN1C(=O)S/C(=C\c2ccc(N3CCN(c4ccccc4OCC)CC3)cc2)C1=O`, the IC50 in test [1] was determined as 0.812 µM; in test [2], 5.58 µM. In test [3], the Ratio IC50 was found to be 6.87.
